Like-named read-outs stand apart in the source and are kept apart here.
Tests used:
[1] = system: gel-filtered human platelets; assay: Inhibition of the aggregation of gel-filtered human platelets after ADP or thrombin stimulation; format: cell-based; details: Platelet
Description: (§1) The compounds are tested in particular for their inhibitory effect on blood platelet aggregation and the adhesion of fibrinogen to blood platelets. Gel-filtered blood platelets from human donor blood are used, which are activated with ADP or thrombin.
As a functional test, the inhibition of the aggregation of gel-filtered human platelets is measured after ADP or thrombin stimulation by the compounds according to the invention. The IC50 value of the inhibition is indicated (reference: G. A. Marguerie et al., J. Biol. Chem. 254 (1979), 5357-5363).
(§2) On testing of the inhibition of fibrinogen binding and the inhibition of aggregation, the following results are obtained for the compounds of the examples which follow: […]

[2] = target: T1, fibrinogen receptor (glycoprotein IIb/IIIa) (Homo sapiens, UniProt P05106+P08514); assay: Inhibition of the binding of 125I-fibrinogen to its receptor (glycoprotein IIb/IIIa) on intact, gel-filtered human platelets; details: after stimulation with ADP (10 μM)
T1 construct: on intact, gel-filtered human platelets; from tissue; host or cells: gel-filtered blood platelets from human donor blood
T1 sequence (P08514 32-887 limits assumed): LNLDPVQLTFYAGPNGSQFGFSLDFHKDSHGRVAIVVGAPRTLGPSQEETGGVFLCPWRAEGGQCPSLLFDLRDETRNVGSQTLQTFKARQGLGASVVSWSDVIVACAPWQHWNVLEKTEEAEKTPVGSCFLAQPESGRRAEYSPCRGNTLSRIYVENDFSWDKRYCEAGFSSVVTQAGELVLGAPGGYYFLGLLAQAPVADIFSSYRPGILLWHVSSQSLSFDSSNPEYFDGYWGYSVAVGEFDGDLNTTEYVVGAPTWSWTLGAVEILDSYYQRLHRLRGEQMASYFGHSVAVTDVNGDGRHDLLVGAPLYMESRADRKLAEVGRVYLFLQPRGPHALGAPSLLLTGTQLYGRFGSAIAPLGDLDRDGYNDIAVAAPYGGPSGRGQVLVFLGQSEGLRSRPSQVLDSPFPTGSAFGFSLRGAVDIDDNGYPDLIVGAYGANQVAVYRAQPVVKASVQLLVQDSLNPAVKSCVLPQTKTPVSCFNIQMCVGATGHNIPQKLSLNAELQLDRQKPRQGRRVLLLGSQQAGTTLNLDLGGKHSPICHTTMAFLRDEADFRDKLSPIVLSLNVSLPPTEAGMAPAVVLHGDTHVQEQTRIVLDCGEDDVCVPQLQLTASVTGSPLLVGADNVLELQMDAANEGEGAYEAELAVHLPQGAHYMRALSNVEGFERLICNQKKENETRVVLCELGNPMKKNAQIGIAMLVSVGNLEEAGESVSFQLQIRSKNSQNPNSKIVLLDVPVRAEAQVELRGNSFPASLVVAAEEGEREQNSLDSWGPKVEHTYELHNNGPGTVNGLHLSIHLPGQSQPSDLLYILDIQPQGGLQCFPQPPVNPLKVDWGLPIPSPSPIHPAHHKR
T1 sequence (P08514 891-1039 limits assumed): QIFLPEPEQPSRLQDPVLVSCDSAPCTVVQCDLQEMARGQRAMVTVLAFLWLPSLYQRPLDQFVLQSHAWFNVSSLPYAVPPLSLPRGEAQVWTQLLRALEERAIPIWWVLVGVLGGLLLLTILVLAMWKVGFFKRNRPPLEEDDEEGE
T1 sequence (P05106 27-788): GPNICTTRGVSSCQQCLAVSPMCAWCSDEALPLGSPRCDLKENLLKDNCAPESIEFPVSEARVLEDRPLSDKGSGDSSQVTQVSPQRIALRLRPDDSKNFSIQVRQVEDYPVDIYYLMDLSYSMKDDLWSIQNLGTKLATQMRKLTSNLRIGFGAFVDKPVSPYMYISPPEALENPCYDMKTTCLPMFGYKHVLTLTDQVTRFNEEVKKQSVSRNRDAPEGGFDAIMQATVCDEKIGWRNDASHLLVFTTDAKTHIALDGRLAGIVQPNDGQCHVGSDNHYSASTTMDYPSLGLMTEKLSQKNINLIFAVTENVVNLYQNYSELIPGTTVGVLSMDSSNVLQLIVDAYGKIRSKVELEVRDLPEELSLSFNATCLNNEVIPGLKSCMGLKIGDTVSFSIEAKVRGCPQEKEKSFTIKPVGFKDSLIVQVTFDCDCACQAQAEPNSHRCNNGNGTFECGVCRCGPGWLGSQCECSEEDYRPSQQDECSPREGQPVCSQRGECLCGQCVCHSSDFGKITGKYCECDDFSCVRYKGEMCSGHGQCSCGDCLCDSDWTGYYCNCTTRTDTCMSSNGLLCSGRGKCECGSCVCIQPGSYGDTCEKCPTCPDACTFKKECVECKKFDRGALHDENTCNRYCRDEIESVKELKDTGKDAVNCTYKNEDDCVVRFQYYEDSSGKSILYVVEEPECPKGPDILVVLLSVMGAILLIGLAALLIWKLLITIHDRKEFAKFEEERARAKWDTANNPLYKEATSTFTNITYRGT
Description: as §1
The inhibition of the binding of fibrinogen to its receptor (glycoprotein IIb/IIIa) on intact, gel-filtered human platelets by the compounds according to the invention is tested. The Ki value of the inhibition of binding of […] after stimulation with ADP (10 μM) is indicated. (Reference: J. S. Bennett and G. Vilaire, J. Clin. Invest. 64 (1979) 1393-1401; E. Kornecki et al., J. Biol. Chem. 256 (1981), 5695-5701; G. A. Marguerie et al., J. Biol. Chem. 254 (1979) 5357-5363; G. A. Marguerie et al., J. Biol. Chem. 255 (1980) 154-161.)
as §2

[3] = ADP stimulation, read-out: Inhibition of platelet aggregation, ADP (IC50)
[4] = thrombin stimulation, read-out: Inhibition of platelet aggregation, thrombin (IC50)

Compound | IC50 [1, 3] [µM] | IC50 [1, 4] [µM] | Ki [2] [µM]
COC(=O)CC(NC(=O)CN1C(=O)CC(Cc2ccc(C(=N)N)cc2)C1=O)c1cccc(O)c1 (racemic) [Example 15, Methyl 3-(R,S)-3-<{3-[4-(aminoiminomethyl)benzyl]-2,5-dioxopyrrolidin-1-yl}acetamido>-3-(3-hydroxyphenyl)propionate] | 200 | 200 | –
N=C(N)c1ccc(CC2CC(=O)N(CC(=O)NC(CC(=O)O)c3cccc(O)c3)C2=O)cc1 (racemic) [Example 16, 3-(R,S)-3-<{3-[4-(Aminoiminomethyl)benzyl]-2,5-dioxopyrrolidin-1-yl}acetamido>-3-(3-hydroxyphenyl)propionate] | 20 | 9 | –
N=C(N)c1ccc(CC2CC(=O)N(CC(=O)N[C@@H](CC(=O)O)C(=O)N[C@H](C(=O)O)c3ccccc3)C2=O)cc1 (stereo partly drawn) [Example 1, {3-[4-(Aminoiminomethyl)benzyl]-2,5-dioxopyrrolidin-1-yl}acetyl-L-aspartyl-L-phenylglycine] | 0.2 | 0.09 | 0.043
COC(=O)[C@H](Cc1c[nH]c2ccccc12)NC(=O)CN1C(=O)CC(Cc2ccc(C(=N)N)cc2)C1=O (stereo partly drawn) [Example 12, {3-[4-(Aminoiminomethyl)benzyl]-2,5-dioxopyrrolidin-1-yl}acetyl-L-tryptophan methyl ester] | 100 | 80 | –
O=C(O)C[C@H](NC(=O)CN1C(=O)CC(CC2CCNCC2)C1=O)C(=O)N[C@H](C(=O)O)c1ccccc1 (stereo partly shown) [Example 19] | 4 | 1 | –

Results, then the compound that gave them:

IC50 [1, 3] [µM] | IC50 [1, 4] [µM] | Ki [2] [µM] | Compound
100 | 100 | – | COC(=O)C(CCc1ccccc1)NC(=O)CN1C(=O)CC(Cc2ccc(C(=N)N)cc2)C1=O (racemic) [Example 13, {3-[4-(Aminoiminomethyl)benzyl]-2,5-dioxopyrrolidin-1-yl}acetyl-D,L-homophenylalanine methyl ester]
100 | 100 | – | N=C(N)c1ccc(CC2CC(=O)N(CC(=O)NC(CCc3ccccc3)C(=O)O)C2=O)cc1 (racemic) [Example 17, {3-[4-(Aminoiminomethyl)benzyl]-2,5-dioxopyrrolidin-1-yl}acetyl-D,L-homophenylalanine]
20 | 35 | – | CC(C)OC(=O)C[C@H](NC(=O)CN1C(=O)CC(Cc2ccc(C(=N)N)cc2)C1=O)C(=O)N[C@H](C(=O)OC(C)C)c1ccccc1 (stereo partly drawn) [Example 14, {3-[4-(Aminoiminomethyl)benzyl]-2,5-dioxopyrrolidin-1-yl}acetyl-L-(β-isopropyl)aspartyl-L-phenylglycine isopropyl ester]
100 | 70 | – | N=C(N)c1ccc(CC2CC(=O)N(CC(=O)N[C@@H](Cc3c[nH]c4ccccc34)C(=O)O)C2=O)cc1 (stereo partly drawn) [Example 18, {3-[4-(Aminoiminomethyl)benzyl]-2,5-dioxopyrrolidin-1-yl}acetyl-L-tryptophan]

Reference: patent US5658935A, “Heterocycles, their preparation and their use” (Hoechst Aktiengesellschaft, priority 1993, dated 1997)
